Literature values in US11202786B2, “Synthetic bile acid compositions and methods” (ALLERGAN SALES, LLC, priority 2007, dated 2021).

Key:
albumin = albumin (Homo sapiens, UniProt P02768); details: 0.4 mg/mL deoxycholate (comparable to the fasting state), in the presence of 26 mg/mL of albumin
[1] = neutral pH

Sequence of albumin (P02768 25-609): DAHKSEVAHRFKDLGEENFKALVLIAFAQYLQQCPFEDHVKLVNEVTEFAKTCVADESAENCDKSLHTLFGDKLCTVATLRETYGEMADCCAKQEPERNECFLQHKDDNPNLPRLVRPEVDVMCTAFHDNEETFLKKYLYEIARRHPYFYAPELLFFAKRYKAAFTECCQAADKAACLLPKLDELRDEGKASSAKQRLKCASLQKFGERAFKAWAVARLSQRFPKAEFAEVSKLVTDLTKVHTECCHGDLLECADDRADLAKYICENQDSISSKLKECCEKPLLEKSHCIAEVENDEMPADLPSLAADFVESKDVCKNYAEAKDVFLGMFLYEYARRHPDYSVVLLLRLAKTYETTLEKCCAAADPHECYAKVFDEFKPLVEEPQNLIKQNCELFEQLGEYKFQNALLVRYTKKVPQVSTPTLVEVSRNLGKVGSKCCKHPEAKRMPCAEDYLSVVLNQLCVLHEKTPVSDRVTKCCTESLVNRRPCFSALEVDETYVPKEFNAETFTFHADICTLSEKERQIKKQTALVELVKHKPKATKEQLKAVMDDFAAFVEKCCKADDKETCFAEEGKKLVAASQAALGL

In the case of `C[C@H](CCC(=O)[O-])[C@H]1CC[C@H]2[C@@H]3CC[C@@H]4C[C@H](O)CC[C@]4(C)[C@H]3C[C@H](O)[C@]12C.[Na+]` [Deoxycholate, sodium deoxycholate], the solubility in acetone (acetone, compared with alcohol) is listed as “even less soluble”, the soluble in water (water) is listed as 333 mg/mL and the bound to albumin (albumin) is listed as 98%. For the same compound, the critical micelle concentration [1] was “approximately 2.4 mg/mL”.
